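Dose response: 5 concentrations. Exposure: 48 h. Format: 96-well plates. Endpoint: linear interpolation; highest concentration if not reached. The concentration for 50% growth inhibition is given as GI50. TGI marks complete inhibition of growth.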
Assays:
Experiment in all cases: inhibition of tumour cell growth, NCI panel, 48 h
A549 NSCLC = system: A549 NSCLC
COLO 205 colon = system: COLO 205 colon
DU-145 prostate = system: DU-145 prostate
HOP-92 NSCLC = system: HOP-92 NSCLC
HS 578T breast = system: HS 578T breast
HT29 colon = system: HT29 colon
MDA-MB-231 breast = system: MDA-MB-231 breast
RPMI-8226 leukemia = system: RPMI-8226 leukemia
SK-MEL-5 melanoma = system: SK-MEL-5 melanoma
UO-31 renal = system: UO-31 renal

Compound | GI50 (A549 NSCLC) [µM] | TGI (A549 NSCLC) [µM] | GI50 (COLO 205 colon) [µM] | TGI (COLO 205 colon) [µM] | GI50 (DU-145 prostate) [µM] | TGI (DU-145 prostate) [µM] | GI50 (HOP-92 NSCLC) [µM] | TGI (HOP-92 NSCLC) [µM] | GI50 (HS 578T breast) [µM] | TGI (HS 578T breast) [µM] | GI50 (HT29 colon) [µM] | TGI (HT29 colon) [µM] | GI50 (MDA-MB-231 breast) [µM] | TGI (MDA-MB-231 breast) [µM] | GI50 (RPMI-8226 leukemia) [µM] | TGI (RPMI-8226 leukemia) [µM] | GI50 (SK-MEL-5 melanoma) [µM] | TGI (SK-MEL-5 melanoma) [µM] | GI50 (UO-31 renal) [µM] | TGI (UO-31 renal) [µM]
COc1ccc(-c2nc3c(c(=O)n2C(C)=O)C(c2ccc(Cl)cc2)c2sc4c(Cl)cccc4c2O3)cc1 (centres undefined) | 0.625 | 2.2 | 0.355 | 1.32 | 0.394 | 1.96 | 1.33 | 4.58 | 0.521 | 4.44 | 0.325 | 1.09 | 0.589 | 2.43 | 0.529 | 5.1 | 0.297 | 1.11 | 0.329 | 2.39
CC[C@@]1(O)C(=O)OCc2c1cc1n(c2=O)Cc2cc3c(N)cccc3nc2-1 | 0.0701 | 2.31 |  | 6.22 | 0.004 | < 0.0299 |  | 1.99 | 0.0865 | > 60.7 | 0.0774 | > 30.1 |  | > 19.9 |  | 4.72 | 0.0214 | 0.0806 | 0.00841 | 0.127
NC(=O)c1cc(I)ccc1NC(=O)COc1ccccc1 | 0.63 | > 100 | 0.323 | 1.97 | 0.457 | 32.2 | 2.98 | 21.4 | 0.462 | 36.1 | 0.367 | > 100 | 1.32 | 26.6 | 0.679 | > 100 | 0.533 | > 100 | 4.27 | > 100
Cc1cc(=O)oc2cc(OCCn3c(C)nn(-c4ccc(Cl)cc4)c3=O)ccc12 | 6.07 | > 100 | 2.39 | 7.34 | 3.9 | > 100 | 16.1 | > 100 | 2.82 | > 100 | 3.82 | > 100 | 4.53 | > 100 | 11 | > 100 | 0.848 | > 100 | 12.7 | > 100
O=c1oc2ccc(F)cc2c(=O)n1-c1ccc(Br)cc1F | 2.29 | > 100 | 4.03 | 15.5 | 0.781 | 22.8 | 0.168 | 0.528 | 0.621 | 7.87 | 3.4 | > 44.3 | 0.434 | 7.28 | 0.27 | 1.05 | 0.267 | 0.737 | 0.194 | 1.7
Nc1ncnc2c1c(-c1ccc(Oc3ccccc3)cc1)nn2C[C@@H]1SSC[C@@H]1O | 0.479 | 2.57 | 1.58 | 4.7 | 1.36 | 4.02 | 1.62 | 6.04 | 2.02 | 11.6 | 0.334 | 1.7 | 1.14 | 4.13 | 2.86 | 14.6 | 0.25 | 0.684 | 1.54 | 5.63
CN(C)C/C=C/C(=O)Nc1ccc(C(=O)N2CCC[C@@H](Nc3ncc(Cl)c(-c4c[nH]c5ccccc45)n3)C2)cc1 | 0.581 | 11 | 0.0338 | 0.122 | 0.215 | 11.1 | 0.244 | 1.54 | 0.214 | 1.45 | 0.285 | 4.2 | 0.138 | 6.71 | 0.422 | 3.83 | 0.231 | 0.618 | 9.84 | 23
O=C(O)C1C(C(=O)O)C2(Cl)C(Cl)=C(Cl)C1(Cl)C2(Cl)Cl.[Cd] (centres undefined) | 18.7 | 39 | 20.5 | 38.6 | 17.8 | 34.5 | 19.2 | 34.8 | 23.5 | > 87 | 18.4 | 35.9 | 20.9 | 42.4 | 6.64 | 48.4 | 1.37 | 5.63 | 20.1 | 39.3
CC1(C)C2CCC13C(=O)C1OC3(C2)C2C(=O)c3c(O)cccc3C(=O)C12 (centres undefined) | 1.24 | 4.57 | 4.09 | 16.1 | 0.196 | 0.386 | 0.566 | 1.89 | 0.988 | 2.86 | 3.58 | 9.4 | 0.472 | 1.33 | 0.177 | 0.441 | 0.46 | 1.64 | 4.5 | 18.5
Fc1cc(-c2nnc3n2N=C(c2ccc(Cl)cc2Cl)CS3)c(Cl)cc1Cl | 58 | > 100 | 32.9 | > 100 | 49.5 | > 100 | 54.2 | > 100 | 33.6 | > 100 | 40.5 | > 100 | 33.7 | > 100 | 25.3 | 95.7 | 26.1 | 65.1 | 60.2 | > 100
C=CC(=O)Nc1cccc(Nc2nc(Nc3ccc(OCCOC(F)F)cc3)ncc2F)c1 | 3.56 | 20.2 | 4.17 | 17.5 | 1.96 | > 100 | 2.28 | 6.75 | 2.13 | 8.77 | 2.67 | 13.5 | 5.02 | 51.1 | 2.48 | 14.7 | 3.74 | 15.1 | 1.29 | 9.56
COc1ccc(C(=O)C[C@]2(O)C(=O)Nc3c(Cl)ccc(Cl)c32)cc1 | 0.766 | > 100 | 0.488 | 9.78 | 1.87 | > 55.7 | 1.41 | > 92.3 | 0.555 | > 100 | 0.376 |  | 0.801 | > 100 | 0.589 | 30 | 0.573 | 22.3 | 1.47 | > 100
O=c1[nH]c2cc(Cl)c(Cl)cc2n2cc3ccccc3c12 | 18.9 | 34.5 | 29.6 | > 100 | 18 | 31.8 | 18.4 | 34.7 | 20.1 | 53 | 29 | > 100 | 17.2 | 32.7 | 22.3 | 49.2 | 19.9 | 41.7 | 17.9 | 32.8
COc1cc2cc(Oc3ccc(NC(=O)c4cccc5c4OCCO5)cc3)c(C)nc2cc1OC | 7.04 | > 100 | 4.95 | > 100 | 25.7 | > 100 | 3.93 | 30.6 | 5.64 | > 100 | 6.12 | > 100 | 6.06 | > 100 | 2.98 | > 100 | 2.92 | > 100 | 4.17 | > 100
Cn1cc(CO)c2ccccc21 | 64.3 | > 100 | 30.3 | > 100 | > 100 | > 100 | 33.9 | > 100 | 38.5 | > 100 | 30.2 | > 100 | 52 | > 100 | 99.9 | > 100 | 48.6 | > 100 | 4.28 | > 100
COc1ccc(NC(=O)c2sc3nc4c(cc3c2N)CCCC4)cc1 | 1.18 | > 100 | 0.876 | 6.46 | 0.982 | > 100 | 10.6 | 76.3 | 0.567 | > 100 | 0.345 | 3.36 | 5.26 | > 100 | 0.484 | 12.1 | 0.355 | 11 | 0.795 | > 100
COc1ccc(/C=C(/C(=O)n2cnnn2)c2cc(OC)c(OC)c(OC)c2)cc1 | 3.97 | > 100 | 2.92 | 7.21 | 3.5 | > 100 | 6.71 | > 100 | 4.07 | > 100 | 3.42 | > 100 | 4.7 | > 100 | 3.68 | > 100 | 3.12 | 29.4 | 5.41 | > 100
COc1cc2nnn3c4ncccc4c(N=O)c3c2cc1OC | 18.2 | > 69.2 | 8.21 | 31.2 | 3.02 | 12.5 | 0.0657 |  | 4.82 | > 100 | 1.34 | > 100 | 4.09 | > 53.9 | 0.173 | > 100 | 14.6 | 34 | 0.89 | > 20.8
CCC(=O)c1cc([N+](=O)[O-])c(Br)s1 | 5.27 | 19.6 | 1.99 | 3.56 | 4.31 | 13.3 | 1.96 | 4.8 | 19.5 | 85 | 1.52 | 3.29 | 6.79 | 21.3 | 20.2 | 89 | 16.5 | 30.4 | 1.59 | 2.98
COC(=O)[C@H](Cc1ccccc1)NC(=O)c1csc([C@@H](C[C@H](C(C)C)N(C)C(=O)[C@@H](NC(=O)[C@H]2CCCN2C)C2CC2)OC(C)=O)n1 | 0.977 | > 33.3 | 0.456 | 4.29 | 0.346 | > 33.3 | 0.463 | > 9.56 | 0.122 | > 33.3 | 0.14 | > 33.3 | 0.577 | > 12.9 | 0.224 | > 33.3 | 0.671 | 8.99 | 2.17 | > 27.9
O=C(CCN1CCCC1)Nc1ccc2c(Nc3ccccc3)c3ccccc3nc2c1 | 0.113 | 3.22 | 0.787 | 2.49 | 0.172 | 1.64 | 0.432 | 2.26 | 1.09 | 3.28 | 0.521 | 3.14 | 1.41 | 3.45 | 0.48 | 1.65 | 1.38 | 2.71 | 0.808 | 2.38
Fc1c[c-]c(-c2ccccn2)c(F)c1.[CH3-].[Pt+2].c1ccc(P(C[PH+](c2ccccc2)c2ccccc2)c2ccccc2)cc1 | 0.393 | 4.7 | 0.485 | 2.07 | 1.06 | 6.47 | 0.512 | 1.34 | 0.864 | 2.9 | 0.5 | 3.73 | 0.724 | 1.78 | 0.262 | 1.87 | 0.714 | 1.37 | 0.731 | 1.41
C[C@@H]1C/C=C\C(=O)O[C@H](/C=C/C#C/C=C/C(C)(C)[C@@H](O)c2cccc(O)c2Br)[C@@H](C)/C=C/[C@H](C)C[C@H](OC(N)=O)C1 | 0.0332 | 19.5 | 0.0435 | 21.4 | 0.0663 | 19.4 | 0.0228 | 0.0836 | 0.4 | 32.3 | 0.029 | 5.77 | 0.0139 | 2.12 | 0.0411 | 6.45 | 0.0179 | 0.0354 | 0.0227 | 0.0799
O=C(O)C1C2C=CC(O2)C1C(=O)Nc1ncccn1 (centres undefined) |  | > 100 |  | > 100 |  | > 100 |  | > 100 |  | > 100 |  | > 100 |  | > 100 |  | > 100 |  | > 100 |  | > 100

Reference: PubChem BioAssay (NCI)
